# Measured values as given in patent US9546164B2 (GENENTECH, INC., priority 2013, dated 2017).
# Where a name gives a salt, the structure may show the parent alone. Read-outs that look alike come from different tables or passages of the source.
# Biological target: hNav1.7 (Homo sapiens (Human), UniProt Q15858)
# Experiment: Tritiated sulfonamide competitive binding to membranes from cells expressing hNav1.7 and the β1 subunit;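 note: Filter-bound radioactivity counted by liquid scintillation, nonspecific binding defined with excess unlabelled ligand, IC50 fitted to percent inhibition of specific binding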
# [1] = read-out: Ligand Binding Assay, 100 pM [3H]compound, membranes with hNav1.7 and β1 subunit, 18 h, room temperature
# Chain of hNav1.7 (Q15858 other isoform, or with tags, fused parts or gaps): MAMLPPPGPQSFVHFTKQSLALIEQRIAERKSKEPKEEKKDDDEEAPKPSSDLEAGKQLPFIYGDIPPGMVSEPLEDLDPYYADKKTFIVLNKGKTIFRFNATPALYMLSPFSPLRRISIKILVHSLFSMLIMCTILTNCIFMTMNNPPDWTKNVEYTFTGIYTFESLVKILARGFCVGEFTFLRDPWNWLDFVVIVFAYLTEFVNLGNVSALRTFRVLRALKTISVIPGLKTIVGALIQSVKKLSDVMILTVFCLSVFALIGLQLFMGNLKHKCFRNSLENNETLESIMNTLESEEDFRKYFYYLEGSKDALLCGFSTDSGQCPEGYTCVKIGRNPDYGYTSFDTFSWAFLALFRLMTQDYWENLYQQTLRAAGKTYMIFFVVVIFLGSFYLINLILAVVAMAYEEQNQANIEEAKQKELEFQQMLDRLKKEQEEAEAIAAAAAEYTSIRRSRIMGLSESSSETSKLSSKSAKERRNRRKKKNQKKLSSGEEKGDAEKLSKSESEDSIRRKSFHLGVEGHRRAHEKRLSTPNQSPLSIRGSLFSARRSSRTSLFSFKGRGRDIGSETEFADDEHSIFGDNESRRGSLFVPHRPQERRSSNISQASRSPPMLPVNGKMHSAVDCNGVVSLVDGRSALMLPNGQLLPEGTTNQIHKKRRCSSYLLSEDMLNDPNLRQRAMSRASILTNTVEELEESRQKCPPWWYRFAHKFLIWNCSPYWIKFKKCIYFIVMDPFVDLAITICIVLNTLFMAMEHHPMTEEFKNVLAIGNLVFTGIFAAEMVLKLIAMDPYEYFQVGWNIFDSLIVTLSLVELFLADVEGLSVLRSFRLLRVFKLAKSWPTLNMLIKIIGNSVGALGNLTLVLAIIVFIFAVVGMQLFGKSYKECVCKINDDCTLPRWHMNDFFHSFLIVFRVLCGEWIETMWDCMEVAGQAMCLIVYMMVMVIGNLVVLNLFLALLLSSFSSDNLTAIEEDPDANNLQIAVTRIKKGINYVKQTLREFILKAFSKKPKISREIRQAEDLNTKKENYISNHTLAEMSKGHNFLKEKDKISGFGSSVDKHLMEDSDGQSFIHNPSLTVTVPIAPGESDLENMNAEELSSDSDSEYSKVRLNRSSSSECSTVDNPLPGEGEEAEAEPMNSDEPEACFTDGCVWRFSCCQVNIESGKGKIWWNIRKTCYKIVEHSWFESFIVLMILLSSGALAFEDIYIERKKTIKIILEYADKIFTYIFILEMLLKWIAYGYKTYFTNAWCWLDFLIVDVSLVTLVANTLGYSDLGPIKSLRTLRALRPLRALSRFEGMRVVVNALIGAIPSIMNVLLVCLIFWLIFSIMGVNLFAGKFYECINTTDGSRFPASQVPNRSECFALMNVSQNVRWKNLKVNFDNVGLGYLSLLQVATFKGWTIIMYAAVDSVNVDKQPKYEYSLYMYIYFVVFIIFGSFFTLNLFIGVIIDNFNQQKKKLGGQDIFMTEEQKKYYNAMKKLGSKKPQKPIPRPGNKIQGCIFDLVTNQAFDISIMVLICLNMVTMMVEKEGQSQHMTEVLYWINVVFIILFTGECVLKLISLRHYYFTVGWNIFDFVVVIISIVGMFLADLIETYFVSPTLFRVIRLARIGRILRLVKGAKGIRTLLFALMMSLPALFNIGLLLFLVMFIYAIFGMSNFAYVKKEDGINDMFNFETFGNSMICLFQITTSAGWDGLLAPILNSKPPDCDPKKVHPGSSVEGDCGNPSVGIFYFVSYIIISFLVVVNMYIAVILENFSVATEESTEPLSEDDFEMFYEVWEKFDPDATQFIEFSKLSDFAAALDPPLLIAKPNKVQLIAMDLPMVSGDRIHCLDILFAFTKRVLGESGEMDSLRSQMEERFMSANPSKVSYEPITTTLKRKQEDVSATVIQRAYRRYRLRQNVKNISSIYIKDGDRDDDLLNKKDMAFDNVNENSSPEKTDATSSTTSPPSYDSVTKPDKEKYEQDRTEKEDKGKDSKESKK
# Chain of hNav1.7 (Q07699 19-218 partner): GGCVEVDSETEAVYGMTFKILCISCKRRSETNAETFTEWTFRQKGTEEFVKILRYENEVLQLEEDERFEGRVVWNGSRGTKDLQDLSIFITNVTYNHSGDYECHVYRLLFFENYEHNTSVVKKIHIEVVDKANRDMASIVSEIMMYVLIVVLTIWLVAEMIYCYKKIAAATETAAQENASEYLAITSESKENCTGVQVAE
Molecule,IC50 [1] [nM],IC50 [nM]
"CS(=O)(=O)NC(=O)c1cc(C2CC2)c(O[C@@H]2CCCN(Cc3cccc(Cl)c3)C2)cc1F [Example 26, (R)-4-((1-(3-chlorobenzyl)piperidin-3-yl)oxy)-5-cyclopropyl-2-fluoro-N-(methylsulfonyl)benzamide acid]",,6.1
"C[C@@H](c1cc(Cl)cc(C(F)(F)F)c1)N1CCC(COc2cc(F)c(C(=O)NS(C)(=O)=O)cc2C2CC2)CC1 (single isomer, unassigned) [Example 277]",4,
"C[C@@H]1CC[C@@H](COc2cc(F)c(C(=O)NS(C)(=O)=O)cc2C2CC2)CN1Cc1cc(Cl)cc(Cl)c1 [Example 341, 5-cyclopropyl-4-(((3R,6R)-1-(3,5-dichlorobenzyl)-6-methylpiperidin-3-yl)methoxy)-2-fluoro-N-(methylsulfonyl)benzamide, trifluoroacetic acid salt]",4.4,
"COC(C)(C)[C@@H](c1cc(Cl)cc(Cl)c1)N1CCC(COc2cc(F)c(C(=O)NS(C)(=O)=O)cc2C2CC2)CC1 (single isomer, unassigned) [Example 205]",2.5,
"CS(=O)(=O)NC(=O)c1cc(C2CC2)c(OCC2CCN(Cc3ccc(C(F)(F)F)c(F)c3)CC2)cc1F [Example 247, 5-cyclopropyl-2-fluoro-4-((1-(3-fluoro-4-(trifluoromethyl)benzyl)piperidin-4-yl)methoxy)-N-(methylsulfonyl)benzamide]",8.9,
"CCS(=O)(=O)NC(=O)c1cc(C2CC2)c(OCC2CCN([C@@H](c3cc(Cl)cc(Cl)c3)C(F)F)CC2)cc1F [Example 226, (S)-5-cyclopropyl-4-((1-(1-(3,5-dichlorophenyl)-2,2-difluoroethyl)piperidin-4-yl)methoxy)-N-(ethylsulfonyl)-2-fluorobenzamide]",12,
5-Cyclopropyl-2-fluoro-N-(methylsulfonyl)-4-((1-(1-phenylethyl)-piperidin-4-yl)methoxy)benzamide [Example 146],276,
"CS(=O)(=O)NC(=O)c1cc(C2CC2)c(OCC2CCN(S(=O)(=O)c3cc(Cl)cc(Cl)c3)CC2)cc1F [Example 273, 5-Cyclopropyl-4-((1-((3,5-dichlorophenyl)sulfonyl)piperidin-4-yl)methoxy)-2-fluoro-N-(methylsulfonyl)benzamide]",8.5,
"CS(=O)(=O)NC(=O)c1cc(C2CC2)c(O[C@@H]2CCCN([C@@H](c3ccc(F)cc3Cl)C(F)(F)F)C2)cc1F (single isomer, unassigned) [Example 298]",4.6,
"CS(=O)(=O)NC(=O)c1cc(C2CC2)c(OCC2CCN(CC3(C(F)(F)F)CC3)CC2)cc1F [Example 252, 5-cyclopropyl-2-fluoro-N-(methylsulfonyl)-4-((1-((1-(trifluoromethyl)cyclopropyl)methyl)piperidin-4-yl)methoxy)benzamide]",50,
"Cc1cc(C(=O)NS(C)(=O)=O)c(F)cc1OCC1CCN([C@@H](C)c2cc(Cl)cc(Cl)c2)CC1 [Example 360, (S)-4-((1-(1-(3,5-dichloro)ethyl)piperidin-4-yl)methoxy)-2-fluoro-5-methyl-N-(methylsulfonyl)benzamide, trifluoroacetic acid]",12.8,
"C[C@H](c1ccc(F)cc1Cl)N1CCC[C@@H](Oc2cc(F)c(C(=O)NS(C)(=O)=O)cc2C2CC2)C1 [Example 296, 4-(((R)-1-((R)-1-(2-chloro-4-fluorophenyl)ethyl)piperidin-3-yl)oxy)-5-cyclopropyl-2-fluoro-N-(methylsulfonyl)benzamide]",8.1,
"CS(=O)(=O)NC(=O)c1cc(C2CC2)c(O[C@@H]2CCCN(CC3(C(F)(F)F)CCC3)C2)cc1F [Example 328, (R)-5-cyclopropyl-2-fluoro-N-(methylsulfonyl)-4-((1-((1-(trifluoromethyl)cyclobutyl)methyl)piperidin-3-yl)oxy)benzamide]",6.4,
"CS(=O)(=O)NC(=O)c1cc(C2CC2)c(O[C@@H]2CCCN(Cc3cccc(C(F)(F)F)c3)C2)cc1F [Example 319, (R)-5-cyclopropyl-2-fluoro-N-(methylsulfonyl)-4-((1-(3-(trifluoromethyl)benzyl)piperidin-3-yl)oxy)benzamide]",5.4,
"CC(C)Oc1ncc([C@@H](c2ccccc2)N2CC(COc3cc(F)c(C(=O)NS(C)(=O)=O)cc3C3CC3)C2)cc1Cl [Example 115, (R)-4-((1-((5-Chloro-6-isopropoxypyridin-3-yl)(phenyl)methyl)azetidin-3-yl)methoxy)-5-cyclopropyl-2-fluoro-N-(methylsulfonyl)benzamide]",4.2,

# The remaining lines, values ahead:
IC50 [1] [nM],IC50 [nM],Molecule
14.5,,"O=C(NS(=O)(=O)C1CC1)c1cc(C2CC2)c(OCC2CCN(S(=O)(=O)c3ccc(Br)c(F)c3)CC2)cc1F [Example 369, 4-((1-((4-bromo-3-fluorophenyl)sulfonyl)piperidin-4-yl)methoxy)-5-cyclopropyl-N-(cyclopropylsulfonyl)-2-fluorobenzamide]"
,5.7,"O=C(NS(=O)(=O)C1CC1)c1cc(C2CC2)c(CN2CCC(Oc3cc(C(F)(F)F)cc(Cl)c3F)CC2)cc1F [Example 537, 4-((4-(3-chloro-2-fluoro-5-(trifluoromethyl)phenoxy)piperidin-1-yl)methyl)-5-cyclopropyl-N-(cyclopropylsulfonyl)-2-fluorobenzamide, trifluoroacetic acid salt]"
9.1,,"CS(=O)(=O)NC(=O)c1cc(C2CC2)c(OCC2CCN(S(=O)(=O)c3cc(Cl)c(Br)cc3F)CC2)cc1F [Example 366, 4-((1-((4-bromo-5-chloro-2-fluorophenyl)sulfonyl)piperidin-4-yl)methoxy)-5-cyclopropyl-2-fluoro-N-(methylsulfonyl)benzamide]"
13.5,,"CC1(COc2cc(F)c(C(=O)NS(=O)(=O)C3CC3)cc2C2CC2)CN(c2cc(Cl)ncc2C(F)(F)F)C1 [Example 487, 4-((1-(2-chloro-5-(trifluoromethyl)pyridin-4-yl)-3-methylazetidin-3-yl)methoxy)-5-cyclopropyl-N-(cyclopropylsulfonyl)-2-fluorobenzamide, trifluoroacetic acid salt]"
4.5,,"CC1(COc2cc(F)c(C(=O)NS(=O)(=O)C3CC3)cc2C2CC2)CN(c2ccc(Cl)c(C(F)(F)F)n2)C1 [Example 485, 4-((1-(5-chloro-6-(trifluoromethyl)pyridin-2-yl)-3-methylazetidin-3-yl)methoxy)-5-cyclopropyl-N-(cyclopropylsulfonyl)-2-fluorobenzamide]"
4.4,,"CS(=O)(=O)NC(=O)c1cc(C2CC2)c(CN2CCO[C@H](Cc3ccc(Cl)c(Cl)c3)C2)cc1F [Example 458, (R)-5-cyclopropyl-4-((2-(3,4-dichlorobenzyl)morpholino)methyl)-2-fluoro-N-(methylsulfonyl)benzamide]"
9.2,,"CCS(=O)(=O)NC(=O)c1cc(C2CC2)c(OCC2(C)CN(c3ncc(Cl)cc3F)C2)cc1F [Example 484, 4-((1-(5-chloro-3-fluoropyridin-2-yl)-3-methylazetidin-3-yl)methoxy)-5-cyclopropyl-N-(ethylsulfonyl)-2-fluorobenzamide]"
0.3,,CS(=O)(=O)NC(=O)c1cc(C2CC2)c(O[C@@H]2CCCN(Cc3cc(Cl)cc(Cl)c3)C2)cc1F [Example 440]
55.3,,"O=C(NS(=O)(=O)N1CCC1)c1cc(C2CC2)c(CN2CCC(OCc3ccc(F)cc3Cl)CC2)cc1F [Example 479, N-(azetidin-1-ylsulfonyl)-4-((4-((2-chloro-4-fluorobenzyl)oxy)piperidin-1-yl)methyl)-5-cyclopropyl-2-fluorobenzamide, trifluoroacetic acid salt]"
5.7,,"O=C(NS(=O)(=O)N1CCC1)c1cc(C2CC2)c(OCC2CCN(Cc3ccc(C4CC4)cc3Cl)CC2)cc1F [Example 417, N-(azetidin-1-ylsulfonyl)-4-((1-(2-chloro-4-cyclopropylbenzyl)piperidin-4-yl)methoxy)-5-cyclopropyl-2-fluorobenzamide, trifluoroacetic acid salt]"
37.2,,"CS(=O)(=O)NC(=O)c1cc(C2CC2)c(CN2CCC(Oc3ccc(C(F)(F)F)cn3)CC2)cc1F [Example 476, 5-cyclopropyl-2-fluoro-N-(methylsulfonyl)-4-((4-((5-trifluoromethyl)pyridin-2-yl)oxypiperidin-1-yl)methyl)benzamide, trifluoroacetic acid salt]"
52.7,,"O=C(NS(=O)(=O)C1CC1)c1cc(C2CC2)c(O[C@@H]2CCCN(c3ccc(F)cn3)C2)cc1F [Example 494, (R)-5-cyclopropyl-N-(cyclopropylsulfonyl)-2-fluoro-4-((1-(5-fluoropyridin-2-yl)piperidin-3-yl)oxy)benzamide, trifluoroacetic acid salt]"
4.5,,"CS(=O)(=O)NC(=O)c1cc(C2CC2)c(O[C@@H]2CCCN(CC3CCC4(CCC4)CC3)C2)cc1F [Example 444, (R)-5-cyclopropyl-2-fluoro-N-(methylsulfonyl)-4-((11-(spiro[3.5]nonan-7-ylmethyl)piperidin-3-yl)oxy)benzamide, trifluoroacetic acid salt]"
3.7,,"CS(=O)(=O)NC(=O)c1cc(C2CC2)c(OCC2CCN(Cc3cc(C(F)(F)F)ccc3Cl)CC2)cc1F [Example 580, 4-((1-(2-chloro-5-(trifluoromethyl)benzyl)piperidin-4-yl)methoxy)-5-cyclopropyl-2-fluoro-N-(methylsulfonyl)benzamide]"
5.2,,"O=C(NS(=O)(=O)N1CCC1)c1cc(C2CC2)c(OCC2CCN(C(c3ccc(F)cc3)c3ccc(F)cc3)CC2)cc1F [Example 419, N-azetidin-1-ylsulfonyl)-4-((1-(bis(4-fluorophenyl)methyl)piperidin-4-yl)methoxy)-5-cyclopropyl-2-fluorobenzamide, trifluoroacetic acid salt]"
,4.4,"O=C(NS(=O)(=O)C1CC1)c1cc(C2CC2)c(CN2CCC(Oc3cc(Cl)cc(OC(F)(F)F)c3)CC2)cc1F [Example 549, 4-((4-(3-chloro-5-(trifluoromethoxy)phenoxy)piperidin-1-yl)methyl)-5-cyclopropyl-N-(cyclopropylsulfonyl)-2-fluorobenzamide, trifluoroacetic acid salt]"
